According to ChEMBL document CHEMBL5241112, “Insights into the recent progress in the medicinal chemistry of pyranopyrimidine analogs” (RSC Med Chem, 2022):
Converted amounts (≈) assume the structure as drawn.

What was measured:
Aspergillus ochraceus = experiment: Antifungal activity against Aspergillus ochraceus AUCC-230 assessed as diameter of inhibition zone incubated for 24 hrs by disc diffusion method; type: functional
Bacillus cereus = experiment: Antibacterial activity against Bacillus cereus ATCC-14579 assessed as diameter of inhibition zone incubated for 24 hrs by disc diffusion method; type: functional
Staphylococcus aureus [1] = experiment: Antibacterial activity against Staphylococcus aureus NCTC-7447 assessed as diameter of inhibition zone incubated for 24 hrs by disc diffusion method; type: functional
Penicillium chrysogenum = experiment: Antifungal activity against Penicillium chrysogenum AUCC-530 assessed as diameter of inhibition zone incubated for 24 hrs by disc diffusion method; type: functional
Proteus mirabilis = experiment: Antibacterial activity against Proteus mirabilis NTCC-289 assessed as diameter of inhibition zone incubated for 24 hrs by disc diffusion method; type: functional
Serratia marcescens = experiment: Antibacterial activity against Serratia marcescens IMRU-70 assessed as diameter of inhibition zone incubated for 24 hrs by disc diffusion method; type: functional
HepG2 [2] = experiment: Anticancer activity against human HepG2 cells assessed as reduction in cell viability incubated for 24 hrs by MTT colorimetric assay; type: functional, cell-based; details: HepG2, 24 h
MCF7 = experiment: Anticancer activity against human MCF7 cells assessed as reduction in cell viability incubated for 24 hrs by MTT colorimetric assay; type: functional, cell-based; details: MCF7, 24 h
HCT-116 = experiment: Anticancer activity against human HCT-116 cells assessed as reduction in cell viability incubated for 24 hrs by MTT colorimetric assay; type: functional, cell-based; details: HCT-116, 24 h
HepG2 [3] = experiment: Anticancer activity against human HepG2 cells assessed as reduction in cell viability incubated for 48 hrs by MTT assay; type: functional, cell-based; details: HepG2, 48 h
Klebsiella pneumoniae = experiment: Antimicrobial activity against Klebsiella pneumoniae ATCC 15380 assessed as diameter of inhibition zone at 20 mg/ml incubated for 24 hrs by disk diffusion method; type: functional; details: read-out: DIZ
Candida albicans = experiment: Antifungal activity against Candida albicans assessed as diameter of inhibition zone incubated for 48 hrs by agar well diffusion method; type: functional
Staphylococcus aureus [4] = experiment: Antibacterial activity against Staphylococcus aureus NCIM 2654 assessed as diameter of inhibition zone incubated for 24 hrs by agar well diffusion method; type: functional
[5] = Antioxidant activity assessed as DPPH radical scavenging activity at 12 ug incubated for 30 mins by spectrophotometric analysis; type: functional; details: dose 12.0 µg
Plasmodium falciparum = experiment: microbe, parasite or virus in culture
Escherichia coli [6] = experiment: Antibacterial activity against Escherichia coli ATCC 25922 assessed as diameter of inhibition zone at 50 mg/ml incubated for 24 hrs by paper disk diffusion method; type: functional; details: read-out: DIZ
[7] = molecular target: T1, Free fatty acid receptor 3 (Homo sapiens, UniProt O14843); experiment: Agonist activity at FFA3 (unknown origin) expressed in human Flp-In-293 cells assessed as inhibition of forskolin-stimulated cAMP accumulation incubated for 30 mins by Lance cAMP assay; type: cell-based
T1 sequence (O14843 whole entry): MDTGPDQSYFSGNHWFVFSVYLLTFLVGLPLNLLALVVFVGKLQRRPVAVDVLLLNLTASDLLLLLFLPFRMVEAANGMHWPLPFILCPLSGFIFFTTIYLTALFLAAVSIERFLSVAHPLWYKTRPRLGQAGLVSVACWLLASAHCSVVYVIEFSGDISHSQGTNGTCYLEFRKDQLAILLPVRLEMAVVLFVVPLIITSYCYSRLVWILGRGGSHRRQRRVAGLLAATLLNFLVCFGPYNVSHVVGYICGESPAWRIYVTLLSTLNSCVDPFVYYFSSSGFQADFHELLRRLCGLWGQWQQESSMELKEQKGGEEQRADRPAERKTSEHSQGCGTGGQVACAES

Staphylococcus aureus [8] = experiment: Antibacterial activity against Staphylococcus aureus MTCC 96 assessed as bacterial growth inhibition incubated for 24 hrs by broth microdilution method; type: functional
Staphylococcus aureus [9] = experiment: Antibacterial activity against Staphylococcus aureus MLS-16 MTCC 2940 assessed as bacterial growth inhibition incubated for 24 hrs by broth microdilution method; type: functional
A549 = experiment: Anticancer activity against human A549 cells assessed as reduction in cell viability incubated for 24 hrs by MTT assay; type: functional, cell-based; details: A549, 24 h
[10] = molecular target: Hydroxycarboxylic acid receptor 2 (Homo sapiens, UniProt Q8TDS4); experiment: Agonist activity at human HCA2 expressed in human Flp-In-293 cells assessed as inhibition of forskolin-stimulated cAMP accumulation incubated for 30 mins by Lance cAMP assay; type: cell-based
[11] = Antioxidant activity assessed as H2O2 radical scavenging activity; type: functional
[12] = Antioxidant activity assessed as DPPH radical scavenging activity; type: functional
Alpha-glucosidase [13] = molecular target: T2, Alpha-glucosidase (Saccharomyces cerevisiae S288c, UniProt P53341+P38158+P07265); experiment: Inhibition of Saccharomyces cerevisiae alpha-glucosidase assessed as decrease in release of p-nitrophenol using pNPG as substrate incubated for 10 mins by spectroscopic analysis; type: protein assay
[14] = Inhibition of porcine pancreatic alpha-amylase preincubated for 10 mins followed by substrate starch addition and measured after 10 mins by colorimetric analysis; parameters: species or system Sus scrofa
Escherichia coli [15] = experiment: Antibacterial activity against Escherichia coli MTCC 723 assessed as diameter of inhibition zone at 0.1 mg/ml incubated for 24 hrs by agar well diffusion method; type: functional; details: read-out: DIZ
Alpha-glucosidase [16] = molecular target: T2, Alpha-glucosidase; experiment: Inhibition of Saccharomyces cerevisiae alpha-glucosidase preincubated for 5 mins followed by PNP-GLUC substrate addition and measured after 20 mins by spectroscopic analysis; type: protein assay
Albumin = Albumin (Bos taurus, UniProt P02769); experiment: […] bovine serum albumin denaturation incubated for 23 mins by UV-Visible spectrophotometry
Chain of Albumin (P02769 whole entry): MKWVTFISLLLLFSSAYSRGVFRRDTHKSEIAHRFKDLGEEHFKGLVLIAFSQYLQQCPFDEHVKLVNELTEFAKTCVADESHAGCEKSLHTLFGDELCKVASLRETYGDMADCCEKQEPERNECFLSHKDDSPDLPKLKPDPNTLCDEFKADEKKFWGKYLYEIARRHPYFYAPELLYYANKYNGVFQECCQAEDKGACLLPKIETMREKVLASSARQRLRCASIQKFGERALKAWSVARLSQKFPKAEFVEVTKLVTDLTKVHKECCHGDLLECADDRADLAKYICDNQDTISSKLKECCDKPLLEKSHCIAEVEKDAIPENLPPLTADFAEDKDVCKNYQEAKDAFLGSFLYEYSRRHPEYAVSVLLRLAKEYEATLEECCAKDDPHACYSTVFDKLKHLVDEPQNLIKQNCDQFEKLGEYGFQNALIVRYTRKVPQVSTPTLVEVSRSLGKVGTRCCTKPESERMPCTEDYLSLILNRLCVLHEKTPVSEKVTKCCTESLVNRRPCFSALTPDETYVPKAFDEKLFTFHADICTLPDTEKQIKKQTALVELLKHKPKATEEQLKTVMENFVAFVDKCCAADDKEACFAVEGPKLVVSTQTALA

Chain of Hydroxycarboxylic acid receptor 2 (Q8TDS4 whole entry): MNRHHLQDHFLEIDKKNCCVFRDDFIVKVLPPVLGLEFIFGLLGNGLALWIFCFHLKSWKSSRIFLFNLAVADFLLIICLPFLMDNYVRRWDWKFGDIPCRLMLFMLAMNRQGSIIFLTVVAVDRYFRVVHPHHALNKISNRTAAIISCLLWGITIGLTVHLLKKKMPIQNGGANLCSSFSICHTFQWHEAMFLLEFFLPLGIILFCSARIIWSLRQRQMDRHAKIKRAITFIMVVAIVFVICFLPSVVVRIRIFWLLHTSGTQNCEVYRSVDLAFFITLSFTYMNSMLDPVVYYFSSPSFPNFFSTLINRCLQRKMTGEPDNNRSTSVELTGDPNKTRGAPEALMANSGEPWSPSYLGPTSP

## N#CCc1nc2c3c(ncn2n1)Oc1c(c(=O)oc2ccccc12)C3c1ccc(Cl)cc1 (stereo unspecified)
Aspergillus ochraceus
  diameter of the inhibition zone (DIZ): 15 mm
Bacillus cereus
  diameter of the inhibition zone (DIZ): 19 mm
Staphylococcus aureus [1]
  diameter of the inhibition zone (DIZ): 18 mm
Penicillium chrysogenum
  diameter of the inhibition zone (DIZ): 13 mm
Proteus mirabilis
  diameter of the inhibition zone (DIZ): 21 mm
Serratia marcescens
  diameter of the inhibition zone (DIZ): 21 mm

## N#CC(C#N)=C1c2c(-c3ccccc3)n[nH]c2Oc2c1c(-c1ccccc1O)[nH]c1nc(=O)[nH]c(=O)c2-1
HepG2 [2]
  IC50: 21.9 µM
MCF7
  IC50: 22.6 µM
HCT-116
  IC50: 18.5 µM

## COc1ccc(C2CC(=O)Oc3[nH]c(=O)[nH]c(=O)c32)cc1O (stereo unspecified)
HepG2 [3]
  IC50: 8.8 µM

## Cc1ccc(C2C(C#N)=C(N)Oc3[nH]c(=O)[nH]c(=O)c32)o1 (stereo unspecified)
Klebsiella pneumoniae
  zone of inhibition at 20000 µg/mL: 16 mm

## N#CC(C#N)=C1c2c(-c3ccccc3)n[nH]c2Oc2[nH]c(=O)nc(-c3ccccc3O)c21
HepG2 [2]
  IC50: 30.1 µM
MCF7
  IC50: 30.1 µM
HCT-116
  IC50: 30.1 µM

## Cc1n[nH]c2c1C(c1ccc(Cl)cc1)c1c([nH]c(=O)[nH]c1=O)O2 (stereo unspecified)
Candida albicans
  diameter of the inhibition zone (DIZ): 18 mm
Staphylococcus aureus [4]
  diameter of the inhibition zone (DIZ): 27 mm
[5]
  Activity: 58.8%

## C=C[C@H]1CN2CC[C@H]1C[C@H]2[C@H](O)c1ccnc2ccc(OC)cc12 [QUININE]
Plasmodium falciparum
  IC50: 0.268 µg/mL (≈ 0.826 µM)

## O=c1[nH]c(-c2ccccc2)nc2c1C(c1ccc(Cl)cc1)C=C(c1cc3ccccc3oc1=O)O2 (stereo unspecified)
Escherichia coli [6]
  zone of inhibition at 50000 µg/mL: 10 mm

## CCCCc1cc(=O)oc2[nH]c(=O)[nH]c(=O)c12
[7]
  EC50: 0.22 µM

## COc1ccc(C2CC(=O)Oc3[nH]c(=O)[nH]c(=O)c32)cc1OC (stereo unspecified)
HepG2 [3]
  IC50: 8.9 µM

## O=c1oc2ccccc2c2c1C(c1ccc(Cl)cc1)c1c(ncn3nc(CCl)nc13)O2 (stereo unspecified)
Aspergillus ochraceus
  diameter of the inhibition zone (DIZ): 15 mm
Bacillus cereus
  diameter of the inhibition zone (DIZ): 19 mm
Staphylococcus aureus [1]
  diameter of the inhibition zone (DIZ): 18 mm
Penicillium chrysogenum
  diameter of the inhibition zone (DIZ): 13 mm
Proteus mirabilis
  diameter of the inhibition zone (DIZ): 21 mm
Serratia marcescens
  diameter of the inhibition zone (DIZ): 21 mm

## CCOC(=O)n1c(=O)nc2c3c(ncn21)Oc1c(c(=O)oc2ccccc12)C3c1ccc(Cl)cc1 (stereo unspecified)
Aspergillus ochraceus
  diameter of the inhibition zone (DIZ): 15 mm
Bacillus cereus
  diameter of the inhibition zone (DIZ): 19 mm
Staphylococcus aureus [1]
  diameter of the inhibition zone (DIZ): 18 mm
Penicillium chrysogenum
  diameter of the inhibition zone (DIZ): 13 mm
Proteus mirabilis
  diameter of the inhibition zone (DIZ): 21 mm
Serratia marcescens
  diameter of the inhibition zone (DIZ): 21 mm

## N#CC(C#N)=C1c2c(-c3ccccc3)n[nH]c2Oc2[nH]c(=S)nc(-c3ccccc3O)c21
HepG2 [2]
  IC50: 22.6 µM
MCF7
  IC50: 22.6 µM
HCT-116
  IC50: 22.6 µM

## O=C1CC(c2ccc(O)cc2)c2c([nH]c(=O)[nH]c2=O)O1 (stereo unspecified)
HepG2 [3]
  IC50: 8.2 µM

## Cc1cc2c(c(=O)o1)C(c1ccccc1)c1c(Nc3cccc([N+](=O)[O-])c3)ncnc1O2 (stereo unspecified)
Staphylococcus aureus [8]
  MIC: 7.8 µg/mL (≈ 18.2 µM)
Staphylococcus aureus [9]
  MIC: 15.6 µg/mL (≈ 36.4 µM)

## CCOC(=O)C1=C(C)Oc2nc(C)n(Cc3cn(-c4ccc(OC)cc4[N+](=O)[O-])nn3)c(=O)c2C1c1ccccc1 (stereo unspecified)
A549
  IC50: 5.76 µM

## O=c1cc(CCCCCl)c2c(=O)[nH]c(=S)[nH]c2o1
[7]
  EC50: 0.22 µM
[10]
  EC50: 0.051 µM

## Nc1ncnc2c1C(c1ccc3c(c1)OCO3)c1ccc(O)cc1O2 (stereo unspecified)
[11]
  IC50: 53.54 µg/mL (≈ 160 µM)
[12]
  IC50: 39.46 µg/mL (≈ 118 µM)

## COc1cc(/C=C/C(=O)C2=C(/C=C/c3ccc(O)c(OC)c3)Oc3[nH]c(=O)[nH]c(=O)c3C2c2c[nH]c3ccccc23)ccc1O (stereo unspecified)
Alpha-glucosidase [13]
  IC50: 35.3 µM

## Cc1cc2c(c(=O)o1)C(c1ccccc1)c1c(Nc3ccc([N+](=O)[O-])cc3)ncnc1O2 (stereo unspecified)
Staphylococcus aureus [8]
  MIC: 7.8 µg/mL (≈ 18.2 µM)
Staphylococcus aureus [9]
  MIC: 15.6 µg/mL (≈ 36.4 µM)

## O=C(C1=C(c2ccccc2O)Oc2[nH]c(=S)[nH]c(=O)c2C1c1ccccc1)N1CCCCC1 (stereo unspecified)
[14]
  IC50: 22.1 µM
Escherichia coli [15]
  zone of inhibition at 100 µg/mL: 13.1 mm
Alpha-glucosidase [16]
  IC50: 7745 µM
Albumin
  IC50: 19.9 µM
